Values quoted from earlier work as cited in patent publication US20130172299A1, “Combination Therapy for Treatment of Bone and Mineral Disorders for Patients with Impaired Renal Function” (priority 2008, published 2013).

Experiments:
[1] = hemodialysis patients

Structure (SMILES)	inflammation in ESRD (300 mg po qd for 14 days)	serious adverse events (300 mg po qd, 15 patients treated for 14 days)	LDL cholesterol [1]	serum HDL cholesterol [1]	serum calcium levels [1]	serum phosphorous levels [1]
Cc1c(O)cc2c(c1C)O[C@](C)(CCC[C@H](C)CCC[C@H](C)CCCC(C)C)CC2 [Gamma tocopherol]	efficacy in reducing inflammation	no serious adverse events were reported	–	–	–	–
NC(=O)c1cccnc1 [nicotinamide]	–	–	decreased	increased	did not change	significantly reduced
